Data: PubChem BioAssay AID328 (DTP/NCI, 2004)
Values joined by “and” are separate entries in the source; they are usually repeats but may differ in a detail not shown here. Equal values may be shown once. Inconclusive results and toxic doses are left out. How the source made its calls: active means survival T/C of 150% or more; inactive means T/C below 125% in these data.

System: BDF1 mice, P388 leukemia ip, median survival T/C
Assay: NCI In Vivo Anticancer Drug Screen. Data for tumor model P388 Leukemia (intraperitoneal) in B6D2F1 (BDF1) mice
Conditions: endpoint: median survival time, higher = longer survival
Outline: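 Compound-treated tumour-bearing mice were compared with vehicle-treated controls. Survival was recorded, and the value is the treated-group measurement divided by the control-group measurement (T/C).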

[1] = dose: 50.0 mg/kg/injection, schedule: Q01DX009 (ip), vehicle: saline with Tween-80
[2] = dose: 100.0 mg/kg/injection, schedule: Q01DX009 (ip), vehicle: saline with Tween-80
[3] = dose: 100.0 mg/kg/injection, schedule: Q04DX003 (ip), vehicle: saline with Tween-80
[4] = dose: 200.0 mg/kg/injection, schedule: Q01DX009 (ip), vehicle: saline with Tween-80
[5] = dose: 200.0 mg/kg/injection, schedule: Q04DX003 (ip), vehicle: saline with Tween-80
[6] = dose: 400.0 mg/kg/injection, schedule: Q04DX003 (ip), vehicle: saline with Tween-80
[7] = dose: 400.0 mg/kg/injection, schedule: Q01DX009 (ip), vehicle: saline with Tween-80
[8] = dose: 12.5 mg/kg/injection, schedule: Q01DX009 (ip), vehicle: saline
[9] = dose: 25.0 mg/kg/injection, schedule: Q01DX009 (ip), vehicle: saline
[10] = dose: 50.0 mg/kg/injection, schedule: Q04DX003 (ip), vehicle: saline
[11] = dose: 50.0 mg/kg/injection, schedule: Q01DX009 (ip), vehicle: Klucel (hydroxypropylcellulose) (HPC)
[12] = dose: 100.0 mg/kg/injection, schedule: Q04DX003 (ip), vehicle: Klucel (hydroxypropylcellulose) (HPC)
[13] = dose: 200.0 mg/kg/injection, schedule: Q04DX003 (ip), vehicle: Klucel (hydroxypropylcellulose) (HPC)
[14] = dose: 12.5 mg/kg/injection, schedule: Q01DX009 (ip), vehicle: Klucel (hydroxypropylcellulose) (HPC)
[15] = dose: 25.0 mg/kg/injection, schedule: Q01DX009 (ip), vehicle: Klucel (hydroxypropylcellulose) (HPC)

Measured: T/C

N#CC1C=Cc2ccccc2N1C(=O)Oc1ccccc1 (stereo unspecified)
inactive: [1] 110 % of control | dose: 100.0 mg/kg/injection, schedule: Q01DX001 (ip), vehicle: other 100 % of control | [2] 100 % of control | [3] 95 % of control | dose: 200.0 mg/kg/injection, schedule: Q01DX001 (ip), vehicle: other 109 % of control | [4] 110 % of control | [5] 100 % of control | dose: 400.0 mg/kg/injection, schedule: Q01DX001 (ip), vehicle: other 90 % of control | [6] 113 % of control

O=[N+]([O-])c1ccc(S(=O)c2ccccc2)c2c1no[n+]2[O-] (stereo unspecified)
inactive: dose: 22.5 mg/kg/injection, schedule: Q01DX009 (ip), vehicle: saline with Tween-80 92 % of control | dose: 45.0 mg/kg/injection, schedule: Q01DX009 (ip), vehicle: saline with Tween-80 93 % of control

CCOC(=O)CCc1nn(C)c2ccc(CC)cc2c1=O
inactive: [1] 101 % of control | [2] 92 % of control | [4] 90 % of control

CS(=O)(=O)CC(O)(c1ccccc1)c1ccncc1 (stereo unspecified)
inactive: [1] 96 % of control | [2] 90 % of control | [4] 98 % of control

CC(C)(C)CC(=O)OCCC[N+](C)(C)C
inactive: dose: 6.25 mg/kg/injection, schedule: Q01DX009 (ip), vehicle: water 103 % of control | dose: 12.5 mg/kg/injection, schedule: Q01DX009 (ip), vehicle: water 119 % of control | dose: 25.0 mg/kg/injection, schedule: Q01DX009 (ip), vehicle: water 99 % of control | dose: 50.0 mg/kg/injection, schedule: Q01DX009 (ip), vehicle: water 91 % of control

CC(=O)NC1=C(N2CC2)C(=O)C(NC(C)=O)=C(N2CC2)C1=O
active: dose: 0.12 mg/kg/injection, schedule: Q01DX009 (ip), vehicle: saline 155 % of control | dose: 0.25 mg/kg/injection, schedule: Q01DX009 (ip), vehicle: saline 166 % of control and 195 % of control | dose: 0.5 mg/kg/injection, schedule: Q01DX009 (ip), vehicle: saline 270 % of control and 214 % of control | dose: 1.0 mg/kg/injection, schedule: Q01DX009 (ip), vehicle: saline 285 % of control and 190 % of control
inactive: dose: 2.0 mg/kg/injection, schedule: Q01DX009 (ip), vehicle: saline 109 % of control

CC(C)C(O)(C(=O)NN)C(=O)NN
inactive: [2] 100 % of control | [4] 109 % of control | [7] 100 % of control

CN(c1ccccc1)c1nc(=O)c2cc3ccc(=O)oc3cc2o1
inactive: dose: 100.0 mg/kg/injection, schedule: Q04DX002 (ip), vehicle: saline with Tween-80 99 % of control | dose: 200.0 mg/kg/injection, schedule: Q04DX002 (ip), vehicle: saline with Tween-80 109 % of control | dose: 400.0 mg/kg/injection, schedule: Q04DX002 (ip), vehicle: saline with Tween-80 100 % of control

CCCCN(c1ccccc1)c1ncnc2c1cnn2C
inactive: [2] 92 % of control and 100 % of control | [3] 100 % of control and 108 % of control | [4] 107 % of control | [5] 91 % of control and 100 % of control | [7] 96 % of control and 100 % of control | [6] 95 % of control and 100 % of control

CC(=O)c1ccc(NC(=O)N(CCCl)N=O)cc1
inactive: dose: 0.29 mg/kg/injection, schedule: Q04DX003 (ip), vehicle: Klucel (hydroxypropylcellulose) (HPC) 118 % of control | dose: 0.43 mg/kg/injection, schedule: Q04DX003 (ip), vehicle: Klucel (hydroxypropylcellulose) (HPC) 113 % of control | dose: 56.25 mg/kg/injection, schedule: Q04DX003 (ip), vehicle: Klucel (hydroxypropylcellulose) (HPC) 109 % of control | dose: 75.0 mg/kg/injection, schedule: Q04DX003 (ip), vehicle: Klucel (hydroxypropylcellulose) (HPC) 122 % of control
236 % of control and 90 % of control: dose: 37.5 mg/kg/injection, schedule: Q04DX003 (ip), vehicle: Klucel (hydroxypropylcellulose) (HPC)
active: dose: 0.99 mg/kg/injection, schedule: Q04DX003 (ip), vehicle: saline 150 % of control | dose: 18.75 mg/kg/injection, schedule: Q04DX003 (ip), vehicle: Klucel (hydroxypropylcellulose) (HPC) 218 % of control | dose: 24.75 mg/kg/injection, schedule: Q04DX003 (ip), vehicle: Klucel (hydroxypropylcellulose) (HPC) 204 % of control

CN(C)CCCN1c2ccccc2Sc2ccc(F)cc21
inactive: dose: 6.25 mg/kg/injection, schedule: Q01DX009 (ip), vehicle: saline 104 % of control | [8] 109 % of control | [9] 122 % of control | dose: 25.0 mg/kg/injection, schedule: Q04DX003 (ip), vehicle: saline 104 % of control | [10] 118 % of control

C#CCOC(=O)NCCC
inactive: [11] 110 % of control | dose: 50.0 mg/kg/injection, schedule: Q04DX003 (ip), vehicle: Klucel (hydroxypropylcellulose) (HPC) 95 % of control | dose: 100.0 mg/kg/injection, schedule: Q01DX009 (ip), vehicle: Klucel (hydroxypropylcellulose) (HPC) 105 % of control | [12] 104 % of control | dose: 200.0 mg/kg/injection, schedule: Q01DX009 (ip), vehicle: Klucel (hydroxypropylcellulose) (HPC) 115 % of control | [13] 104 % of control

O=S(=O)(NC1CCCCC1)c1ccccc1
inactive: dose: 75.0 mg/kg/injection, schedule: Q01DX009 (ip), vehicle: saline with Tween-80 90 % of control | [3] 95 % of control | dose: 150.0 mg/kg/injection, schedule: Q01DX009 (ip), vehicle: saline with Tween-80 90 % of control | dose: 300.0 mg/kg/injection, schedule: Q01DX009 (ip), vehicle: saline with Tween-80 95 % of control | [6] 100 % of control

CC1(C)OC(C)(C)c2c1nnc(-c1ccccc1[N+](=O)[O-])[n+]2[O-]
inactive: dose: 50.0 mg/kg/injection, schedule: Q01DX005 (ip), vehicle: saline with Tween-80 93 % of control | dose: 100.0 mg/kg/injection, schedule: Q01DX005 (ip), vehicle: saline with Tween-80 88 % of control | dose: 200.0 mg/kg/injection, schedule: Q01DX005 (ip), vehicle: saline with Tween-80 86 % of control

CC(=O)C(C)(c1ccccc1)N(Cc1ccccc1)C(=O)c1ccccc1 (stereo unspecified)
inactive: dose: 100.0 mg/kg/injection, schedule: Q01DX001 (ip), vehicle: saline 109 % of control | dose: 200.0 mg/kg/injection, schedule: Q01DX001 (ip), vehicle: saline 109 % of control | dose: 400.0 mg/kg/injection, schedule: Q01DX001 (ip), vehicle: saline 104 % of control

O=C1c2ccccc2S(=O)(=O)N1CCCBr
inactive: [14] 95 % of control | [15] 110 % of control | [11] 105 % of control | [12] 95 % of control | [13] 95 % of control | dose: 400.0 mg/kg/injection, schedule: Q04DX003 (ip), vehicle: Klucel (hydroxypropylcellulose) (HPC) 95 % of control

Nc1ncns1
inactive: [10] 101 % of control | dose: 100.0 mg/kg/injection, schedule: Q04DX003 (ip), vehicle: saline 120 % of control

O=P(N1CCOCC1)(N1CC1)N1CC1
active: [8] 251 % of control and 290 % of control
inactive: [9] 90 % of control

C=C1C(=O)OC2/C=C(\C)C3(O)OC(C)(CC(OC(=O)C(C)C)C12)CC3O (stereo unspecified)
inactive: dose: 10.0 mg/kg/injection, schedule: Q01DX009 (ip), vehicle: saline 96 % of control | dose: 40.0 mg/kg/injection, schedule: Q01DX009 (ip), vehicle: saline 96 % of control

COc1ccc(CC(=O)NCCN(CCN(CCO)C(=O)Cc2ccc(OC)cc2)C(=O)Cc2ccc(OC)cc2)cc1
inactive: [2] 105 % of control | [3] 120 % of control | [4] 95 % of control | [5] 100 % of control | [7] 100 % of control | [6] 105 % of control

N#Cc1cccc(/C=C/C=C\c2ccc([N+](=O)[O-])cc2)c1
inactive: dose: 100.0 mg/kg/injection, schedule: Q01DX001 (ip), vehicle: Klucel (hydroxypropylcellulose) (HPC) 95 % of control | dose: 200.0 mg/kg/injection, schedule: Q01DX001 (ip), vehicle: Klucel (hydroxypropylcellulose) (HPC) 90 % of control | dose: 400.0 mg/kg/injection, schedule: Q01DX001 (ip), vehicle: Klucel (hydroxypropylcellulose) (HPC) 90 % of control

c1cnc2c3c(ccc2c1)CN(C1CCCCC1)CO3
inactive: dose: 50.0 mg/kg/injection, schedule: Q04DX003 (ip), vehicle: saline with Tween-80 104 % of control | [3] 104 % of control | [5] 90 % of control

C[n+]1ccccc1/C=C/c1cccc(O)c1
inactive: dose: 3.12 mg/kg/injection, schedule: Q01DX009 (ip), vehicle: Klucel (hydroxypropylcellulose) (HPC) 96 % of control | dose: 6.25 mg/kg/injection, schedule: Q01DX009 (ip), vehicle: Klucel (hydroxypropylcellulose) (HPC) 96 % of control | [14] 102 % of control | [15] 102 % of control
